Positions count from the first letter of the chain named. Non-standard residues stand in square brackets, D forms with d. No end group written: not given here. pY = N[C@@H](Cc1ccc(OP(=O)(O)O)cc1)C(=O)O; FAM = 5,6-carboxyfluorescein
Key:
[1] = molecular target: T1, Rtt103p CID (Saccharomyces cerevisiae, UniProt Q05543); experiment: Equilibrium binding by fluorescence anisotropy (FA), wild-type Rtt103p CID; design: species or system yeast
T1 construct: Rtt103p CID (3‐131–6xHIS) was expressed and purified as previously described; 6xHis (C); made in house; host or cells: E. coli BL21-Codon Plus (DE3)-RIPL
T1 sequence (Q05543 3-131): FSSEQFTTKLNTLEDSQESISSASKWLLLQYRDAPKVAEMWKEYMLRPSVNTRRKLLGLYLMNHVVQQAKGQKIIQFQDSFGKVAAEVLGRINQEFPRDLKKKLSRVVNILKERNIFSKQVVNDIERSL

[2] = molecular target: T2, Rtt103p CID Q19A (Saccharomyces cerevisiae, UniProt Q05543, Q19A); experiment: Equilibrium binding by fluorescence anisotropy (FA), Rtt103p CID Q19A mutant; design: species or system yeast; settings: Rtt103p CID Q19A mutant titrated into 10 nM FAM‐labelled CTD peptide, 10°C, pH 6.8, ± standard deviation of the fit
T2 construct: Rtt103p CID (3‐131–6xHIS) was expressed and purified as previously described; 6xHis (C); made in house; host or cells: E. coli BL21-Codon Plus (DE3)-RIPL
T2 sequence (Q05543 3-131 Q19A): T1 sequence (Q05543 3-131) with Q17A
Method: The equilibrium binding of Rtt103p CID constructs to differently phosphorylated CTD was analysed by fluorescence anisotropy. The CTD peptides were N‐terminally labelled with the 5,6‐carboxyfluorescein (FAM). The measurements were conducted on a FluoroLog‐3 spectrofluorometer (Horiba Jobin‐Yvon Edison, NJ). The instrument was equipped with a thermostatted cell holder with a Neslab RTE7 water bath (Thermo Scientific). Samples were excited with vertically polarized light at 467 nm, and both vertical and horizontal emissions were recorded at 516 nm. All measurements were conducted at 10°C in 35 mM KH2PO4, 100 mM KCl (pH 6.8). Each data point is an average of three measurements. The experimental binding isotherms were analysed by DynaFit using 1:1 model with non‐specific binding 39.

C[C@@H](O)[C@H](NC(=O)[C@@H]1CCCN1C(=O)[C@H](CO)NC(=O)[C@H](Cc1ccc(O)cc1)NC(=O)[C@H](CO)NC(=O)[C@@H]1CCCN1C(=O)[C@H](CO)NC(=O)[C@@H](NC(=O)[C@@H]1CCCN1C(=O)[C@H](COP(=O)(O)O)NC(=O)[C@H](Cc1ccc(O)cc1)NC(=O)[C@H](CO)NC(=O)[C@@H]1CCCN1C(=O)c1ccc2c(c1)C(=O)OC21c2ccc(O)cc2Oc2cc(O)ccc21)[C@@H](C)OP(=O)(O)O)C(=O)N[C@@H](CO)C(=O)N1CCC[C@H]1C(=O)N[C@@H](CO)C(=O)O [PS YpSPpTSPS YSPTSPS]
Kd [1]: 43 ± 2 µM

C[C@@H](OP(=O)(O)O)[C@H](NC(=O)[C@@H]1CCCN1C(=O)[C@H](CO)NC(=O)[C@H](Cc1ccc(O)cc1)NC(=O)[C@H](CO)NC(=O)[C@@H]1CCCN1C(=O)[C@H](CO)NC(=O)[C@@H](NC(=O)[C@@H]1CCCN1C(=O)[C@H](CO)NC(=O)[C@H](Cc1ccc(O)cc1)NC(=O)[C@H](CO)NC(=O)[C@@H]1CCCN1C(=O)c1ccc2c(c1)C(=O)OC21c2ccc(O)cc2Oc2cc(O)ccc21)[C@@H](C)OP(=O)(O)O)C(=O)N[C@@H](CO)C(=O)N1CCC[C@H]1C(=O)N[C@@H](CO)C(=O)O [Doubly phosphorylated pThr4‐CTD]
Kd [1]: 6 ± 0.2 µM

PS pYSPTSPS YSPTSPS: FAM‐labelled CTD peptide with the pTyr1 mark in the central heptad ({FAM}-PS[pY]SPTSPSYSPTSPS)
binding with Rtt103p (in words) ([1]; fluorescence anisotropy, 10 nM FAM‐labelled CTD peptide, 10°C, pH 6.8): completely abolished the binding

C[C@@H](O)[C@H](NC(=O)[C@@H]1CCCN1C(=O)[C@H](CO)NC(=O)[C@H](Cc1ccc(O)cc1)NC(=O)[C@H](CO)NC(=O)[C@@H]1CCCN1C(=O)[C@H](CO)NC(=O)[C@@H](NC(=O)[C@@H]1CCCN1C(=O)[C@H](COP(=O)(O)O)NC(=O)[C@H](Cc1ccc(O)cc1)NC(=O)[C@H](CO)NC(=O)[C@@H]1CCCN1C(=O)c1ccc2c(c1)C(=O)OC21c2ccc(O)cc2Oc2cc(O)ccc21)[C@@H](C)O)C(=O)N[C@@H](CO)C(=O)N1CCC[C@H]1C(=O)N[C@@H](CO)C(=O)O [pSer2‐CTD]
Kd [1]: 6 ± 0.2 µM

C[C@@H](O)[C@H](NC(=O)[C@@H]1CCCN1C(=O)[C@H](CO)NC(=O)[C@H](Cc1ccc(O)cc1)NC(=O)[C@H](CO)NC(=O)[C@@H]1CCCN1C(=O)[C@H](CO)NC(=O)[C@@H](NC(=O)[C@@H]1CCCN1C(=O)[C@H](CO)NC(=O)[C@H](Cc1ccc(O)cc1)NC(=O)[C@H](CO)NC(=O)[C@@H]1CCCN1C(=O)c1ccc2c(c1)C(=O)OC21c2ccc(O)cc2Oc2cc(O)ccc21)[C@@H](C)OP(=O)(O)O)C(=O)N[C@@H](CO)C(=O)N1CCC[C@H]1C(=O)N[C@@H](CO)C(=O)O [pThr4‐CTD]
Kd [1]: 15 ± 1 µM | Kd [2]: 48 ± 5 µM
